# Values quoted from earlier work, collected in patent publication US5621142A, “Aminoalkylcyclopropane derivatives” (Asahi Kasei Kogyo Kabushiki Kaisha, priority 1994, dated 1997).
# Columns and labels:
# [1] = tested on: synaptosomal uptake of 5-HT; conditions: Neuropharmacology, Vol. 24, No. 12, 1211-1219, 1985
# [2] = tested on: synaptosomal uptake of norepipephrine; conditions: Neuropharmacology, Vol. 24, No. 12, 1211-1219, 1985
smiles,measurement,setting,value
"CCN(CC)C(=O)C1(c2ccccc2)CC1CN.Cl (centres unmarked) [compound (A), 1-phenyl-1-diethylaminocarbonyl-2-aminomethyl-cyclopropane hydrochloride]",activity to inhibit the synaptosomal uptake of 5-HT,[1],has an activity to inhibit the synaptosomal uptake of norepipephrine and 5-HT
same,activity to inhibit the synaptosomal uptake of norepipephrine,[2],has an activity to inhibit the synaptosomal uptake of norepipephrine and 5-HT
